Test results from paper PMC4102529, “FRET Based Quantification and Screening Technology Platform for the Interactions of Leukocyte Function-Associated Antigen-1 (LFA-1) with InterCellular Adhesion Molecule-1 (ICAM-1)” (PLoS ONE, 2014).

Columns and labels:
[1] = system: LFA-1/D1-D2-Fc (ICAM-1) interaction; assay: Steady-state FRET based competitive screening assay for inhibition of the LFA-1/D1-D2-Fc interaction; format: binding, human; conditions: for inhibition efficiency: 100 nM Alexa Fluor 488-LFA-1 + 100 nM Alexa Fluor 555-D1-D2-Fc, PBS, pH 7.4, 1 mM EGTA, 2 mM Mg^2+, 30 min, dark, calculated from FRET efficiency, Eq. (1); for FRET efficiency: mean ± rms, control without inhibitor 53.51 ± 0.10%, A/D = 2.12, excitation 470 nm, Eq. (3); for rank of inhibition efficiency among the three LFA-1 derived peptides: 0.02, 0.2, 2 and 20 µM
Experimental: But with increasing concentration of the lovastatin, the FRET efficiency decreased to 5.3% for 200 µM of lovastatin. The inhibition efficiency (%) was calculated for each concentration of lovastatin using the relation,
[drawing 1] (1) where Fcontrol is the FRET efficiency of the Alexa Fluor 488-LFA-1 and Alexa Fluor 555-D1-D2-Fc alone and Fx is that of the FRET mixture when incubated with inhibitors. The inhibition efficiency of lovastatin was calculated to be 69.48±0.77%, 73.84±0.56%, 84.98±0.10%, and 90.03±0.06% for 0.2, 2, 20, and 200 µM respectively [Fig. 7(a)].
To characterize and compare the inhibitory activity of the selected peptides, CD11a237–261, CD11a441–465, and CD11a456–465, the FRET mixture was incubated with several concentrations (0.02, 0.2, 2, and 20 µM) of the peptides (following the procedure described in the “Materials and Methods” section) and the FRET efficiency (Tables S3, S4, S5) and the inhibition efficiency [Fig. 7(b)] were calculated for each case. The inhibition efficiency for CD11a237–261 at 0.02, 0.2, 2, and 20 µM are 40.81±0.31%, 47.05±0.56%, 53.16±0.70%, 65.13±0.81%, respectively; the corresponding values for CD11a441–465, at the same concentrations, are 20.89±0.72%, 37.08±0.29%, 46.93±0.89%, 62.01±0.15%, respectively; and for CD11a456–465, the corresponding values are 12.17±0.91%, 20.26±0.69%, 36.46±0.42%, 51.41±0.33%. From these values, we note that the difference in inhibition efficiency of these three peptides is much more significant at low peptide concentration (on the order of 0.02 to 0.2 µM), the cause of which requires further investigation. Nevertheless, in all cases, the inhibition efficiency of CD11a237–261 is highest and CD11a456–465 the lowest, which are in good agreement with those reported in the literature.
The FRET efficiency can be adjusted by changing the fluorophore to protein ratio; the optimal acceptor to donor fluorophore (A/D) ratio was obtained following the procedure reported in the literature with slight modification. In short, A/D is defined as the number of the acceptor fluorophore molecules to donor molecule in the interacting protein complex. Several concentration ratios of Alexa Fluor 488-LFA-1 and Alexa Fluor 555-D1-D2-Fc were incubated for 30 minutes at room temperature and the FRET emission spectra were obtained via a fluorescence multiplate reader, Tecan Infinite M200 pro (Männedorf, Switzerland). For each concentration ratio, the concentration of the acceptor conjugate, Alexa Fluor 555-D1-D2-Fc, was kept constant. The optimal A/D ratio for the FRET pair was selected by comparing the FRET efficiencies for different A/D ratios. […] Due to these facts, we have used equation (3), [65] given below for the FRET efficiency (E) calculation which incorporates the cross-talk corrections for each of the A/D ratios. [drawing 3] (3) here, (λ470, λ) denotes the numerical integral of the emission spectrum between 560 and 610 nm when excited with 470 nm. fDA, fA, and fD represent the emission spectra of the FRET mixture, acceptor alone, and donor alone, respectively. The absorbance values of donor and acceptor, at the excitation maximum of Alexa Fluor 488 of 470 nm, is represented by A^D and A^A, respectively. […] In this article, the calculation was implemented assuming that there […] in the overlap integral with different F/P and the (associated) different A/D ratios. The optimal A/D ratio was used for the development of the FRET based screening platform for the assessment of peptides and small molecules for their inhibition efficiency of the LFA-1 and ICAM-1 interactions.
The donor, Alexa Fluor 488-LFA-1, with a concentration corresponding to the […] A/D ratio was mixed with each kind of LFA-1 derived peptides (CD11a237–261, CD11a441–465, and CD11a456–465) in PBS, pH 7.4, 1 mM EGTA and 2 mM Mg^2+. […]

[2] = system: I-domain of LFA-1 (CD11a I-domain); conditions: ref [58]; cited from earlier work
Excerpt: In our study, we identified three LFA-1 derived peptides, CD11a237–261, […], and CD11a456–465, to compare their inhibition efficiency via our steady-state FRET based competitive screening assay. Moreover, the inhibition efficiency of lovastatin, a well-known potent inhibitor of the ICAM-1 interaction, was also obtained to further validate the FRET screening platform. ...

[3] = system: human immunodeficiency virus type 1; conditions: ref [59]; cited from earlier work
[4] = system: interaction of ICAM-1 with LFA-1; set-up: method as in PMID 12368073; conditions: ref [34]; cited from earlier work
Excerpt: Based on these roles in several disease pathologies, the LFA-1/ICAM-1 interaction can serve as a potential therapeutic target in the development of new therapies for the autoimmune diseases, metastasis cancer, and viral diseases. […] Furthermore, several […] therapies were developed for the treatment of autoimmune diseases. However, […] therapies have serious side effects in humans due to their large molecular structure an ...

Molecule “APLFY- GEQRG [CD11a456–465, LFA-1α derived peptide, purchased from GenScript]” has an inhibition efficiency ([1]; 0.02 µM inhibitor) of 12.17±0.91%, an FRET efficiency ([1]; 0.02 µM inhibitor) of 47.00 ± 0.81% and an inhibition efficiency ([1]; 0.2 µM inhibitor) of 20.26±0.69%. For the same molecule, the FRET efficiency ([1]; 0.2 µM inhibitor) was 42.67 ± 0.57%, the inhibition efficiency ([1]; 2 µM inhibitor) was 36.46±0.42% and the FRET efficiency ([1]; 2 µM inhibitor) was 34.00 ± 0.08%. For the same molecule, the inhibition efficiency ([1]; 20 µM inhibitor) was 51.41±0.33%, the FRET efficiency ([1]; 20 µM inhibitor) was 26.00 ± 0.58% and the “rank of inhibition efficiency among the three LFA-1 derived peptides” value [1] was “the lowest”.
In the case of `CC[C@H](C)C(=O)O[C@H]1C[C@@H](C)C=C2C=C[C@H](C)[C@H](CC[C@@H]3C[C@@H](O)CC(=O)O3)[C@H]21` [lovastatin, reference compound], the inhibition efficiency ([1]; 0.2 µM inhibitor) is reported as 69.48±0.77%, the FRET efficiency ([1]; 0.2 µM inhibitor) is reported as 16.33 ± 0.76% and the inhibition efficiency ([1]; 2 µM inhibitor) is reported as 73.84±0.56%. The FRET efficiency ([1]; 2 µM inhibitor) was 14.00 ± 0.57%, the inhibition efficiency ([1]; 20 µM inhibitor) was 84.98±0.10% and the FRET efficiency ([1]; 20 µM inhibitor) was 8.03 ± 0.01%. It also gave an inhibition efficiency ([1]; 200 µM inhibitor) of 90.03±0.06%, an FRET efficiency ([1]; 200 µM inhibitor) of 5.3% and an FRET efficiency ([1]; 200 µM inhibitor, listed as Lovastatin) of 5.33 ± 0.01%. For the same molecule, the “binding to the I-domain of LFA-1” value [2] was “binds with the highly conserved I-domain of LFA-1”, the “effect on HIV-1 replication” value [3] was “reduction of human immunodeficiency virus type 1 replication” and the “inhibition of the interaction of ICAM-1 with LFA-1” value [4] was “specifically inhibits the interaction of ICAM-1 with LFA-1”.
For “ITDGEATDSGNIDAAKDIIR-YIIGI [CD11a237–261, LFA-1α derived peptide, purchased from GenScript]”, the inhibition efficiency ([1]; 0.02 µM inhibitor) was 40.81±0.31%, the FRET efficiency ([1]; 0.02 µM inhibitor) was 31.67 ± 0.06% and the inhibition efficiency ([1]; 0.2 µM inhibitor) was 47.05±0.56%. The FRET efficiency ([1]; 0.2 µM inhibitor) was 28.33 ± 0.51%, the inhibition efficiency ([1]; 2 µM inhibitor) was 53.16±0.70% and the FRET efficiency ([1]; 2 µM inhibitor) was 25.06 ± 0.66%. For the same molecule, the inhibition efficiency ([1]; 20 µM inhibitor) was 65.13±0.81%, the FRET efficiency ([1]; 20 µM inhibitor) was 18.66 ± 0.06% and the “rank of inhibition efficiency among the three LFA-1 derived peptides” value [1] was “highest inhibition efficiency”.
Work on “GVDVDQDGETEL-IGAPLFYGEQRG [CD11a441–465, LFA-1α derived peptide, purchased from GenScript]” yielded an inhibition efficiency ([1]; 0.02 µM inhibitor) of 20.89±0.72%, an FRET efficiency ([1]; 0.02 µM inhibitor) of 42.33 ± 0.23% and an inhibition efficiency ([1]; 0.2 µM inhibitor) of 37.08±0.29%. The FRET efficiency ([1]; 0.2 µM inhibitor) was 33.67 ± 0.51%, the inhibition efficiency ([1]; 2 µM inhibitor) was 46.93±0.89% and the FRET efficiency ([1]; 2 µM inhibitor) was 28.40 ± 0.02%. It also gave an inhibition efficiency ([1]; 20 µM inhibitor) of 62.01±0.15% and an FRET efficiency ([1]; 20 µM inhibitor) of 20.33 ± 0.53%.
